Results from patent US12024510B2, “Pyrazolopyridine-diamides, their use as insecticide and processes for preparing the same” (PI INDUSTRIES LTD., priority 2017, dated 2024).

Legend:
Type in all cases: in vivo
[1] = test system: Plutella xylostella; experiment: whole plant or invertebrate; conditions: foliar, cabbage leaf dip, second instar larvae, dead and moribund combined, 72 h after release
Method in brief: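 Leaf-dip bioassay: second-instar larvae, singly, fed on cabbage leaves dipped 10 s in test dispersion (bead-milled, diluted with 0.01% Triton-X to test concentration) and dried 20 min. Held at 25 °C, 70% RH; % mortality counts dead and moribund at 72 h.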

[2] = test system: Helicoverpa armigera; experiment: Helicoverpa armigera diet incorporation method; conditions: third instar larvae, dead and moribund combined, 96 h after release
Method in brief: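 Third-instar larvae, starved, were placed singly on diet pieces containing test dispersion (bead-milled in surfactant, particles under 2 μm, 500 ppm stock then diluted). Trays kept at 25° C. and 70% RH; mortality counted at 96 h, moribund larvae counted with dead.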

[3] = test system: Spodoptera litura; experiment: Spodoptera litura diet incorporation method; conditions: third instar larvae, dead and moribund combined, 96 h after release
Method in brief: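 Compound milled to <2 μm average particle size in surfactant, dispersed in water (500 ppm stock dispersion), then mixed into semi-synthetic diet at ~50° C. One starved third-instar larva per diet cell, 25° C, 70% RH; percent mortality (dead plus moribund) scored at 96 h.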

Measured: mortality at 300 ppm

Cc1cc2ccnn2c(C(=O)NC(C)C2CC2)c1NC(=O)c1cc(Br)nn1-c1ncccc1Cl (stereo not drawn) [Compound 95, 6-(3-bromo-1-(3-chloropyridin-2-yl)-1H-pyrazole-5-carboxamido)-N-(1-cyclopropylethyl)-5-methylpyrazolo[1,5-a]pyridine-7-carboxamide]
> 70%: all assays above

C=CCNC(=O)c1c(NC(=O)c2cc(OCC(F)(F)F)nn2-c2ncccc2Cl)c(C)cc2ccnn12 [Compound 20, N-allyl-6-(1-(3-chloropyridin-2-yl)-3-(2,2,2-trifluoroethoxy)-1H-pyrazole-5-carboxamido)-5-methylpyrazolo[1,5-a]pyridine-7-carboxamide]
> 70%: all assays above

CCNC(=O)c1c(NC(=O)c2cc(Br)nn2-c2ncccc2Cl)ccc2ccnn12 [Compound 157, 6-(3-bromo-1-(3-chloropyridin-2-yl)-1H-pyrazole-5-carboxamido)-N-ethylpyrazolo[1,5-a]pyridine-7-carboxamide]
> 70%: all assays above

Cc1cc2ccnn2c(C(=O)NCC#N)c1NC(=O)c1cc(OCC(F)(F)F)nn1-c1ncccc1Cl [Compound 15, 6-(1-(3-chloropyridin-2-yl)-3-(2,2,2-trifluoroethoxy)-1H-pyrazole-5-carboxamido)-N-(cyanomethyl)-5-methylpyrazolo[1,5-a]pyridine-7-carboxamide]
> 70%: all assays above

Cc1cc2ccnn2c(C(=O)NC(C)C)c1NC(=O)c1cc(OCC(F)(F)F)nn1-c1ncccc1Cl [Compound 12, 6-(1-(3-chloropyridin-2-yl)-3-(2,2,2-trifluoroethoxy)-1H-pyrazole-5-carboxamido)-N-isopropyl-5-methylpyrazolo[1,5-a]pyridine-7-carboxamide]
> 70%: all assays above

Cc1cc2ccnn2c(C(=O)NC(C)(C)CO)c1NC(=O)c1cc(Br)nn1-c1ncccc1Cl [Compound 196, 6-(3-bromo-1-(3-chloropyridin-2-yl)-1H-pyrazole-5-carboxamido)-N-(1-hydroxy-2-methylpropan-2-yl)-5-methylpyrazolo[1,5-a]pyridine-7-carboxamide]
> 70%: all assays above

CCNC(=O)c1c(NC(=O)c2cc(C(F)(F)F)nn2-c2ncccc2Cl)c(C)cc2ccnn12 [Compound 59, 6-(1-(3-chloropyridin-2-yl)-3-(trifluoromethyl)-1H-pyrazole-5-carboxamido)-N-ethyl-5-methylpyrazolo[1,5-a]pyridine-7-carboxamide]
> 70%: all assays above

Cc1cc2ccnn2c(C(=O)NC2CC2)c1NC(=O)c1cc(C(F)(F)F)nn1-c1ncccc1Cl [Compound 61, 6-(1-(3-chloropyridin-2-yl)-3-(trifluoromethyl)-1H-pyrazole-5-carboxamido)-N-cyclopropyl-5-methylpyrazolo[1,5-a]pyridine-7-carboxamide]
> 70%: all assays above

C=CCNC(=O)c1c(NC(=O)c2cc(Br)nn2-c2ncccc2Cl)c(Br)cc2ccnn12 [Compound 56, N-allyl-5-bromo-6-(3-bromo-1-(3-chloropyridin-2-yl)-1H-pyrazole-5-carboxamido)pyrazolo[1,5-a]pyridine-7-carboxamide]
> 70%: all assays above

COc1cc(C(=O)Nc2c(Br)cc3ccnn3c2C(=O)NC(C)(C)C)n(-c2ncccc2Cl)n1 [Compound 119, 5-bromo-N-(tert-butyl)-6-(1-(3-chloropyridin-2-yl)-3-methoxy-1H-pyrazole-5-carboxamido)pyrazolo[1,5-a]pyridine-7-carboxamide]
> 70%: all assays above

O=C(Nc1c(Br)cc2ccnn2c1C(=O)NCC1CC1)c1cc(Br)nn1-c1ncccc1Cl [Compound 54, 5-bromo-6-(3-bromo-1-(3-chloropyridin-2-yl)-1H-pyrazole-5-carboxamido)-N-(cyclopropylmethyl)pyrazolo[1,5-a]pyridine-7-carboxamide]
> 70%: all assays above

COc1cc(C(=O)Nc2c(C)cc3ccnn3c2C(=O)NCC2CC2)n(-c2ncccc2Cl)n1 [Compound 27, 6-(1-(3-chloropyridin-2-yl)-3-methoxy-1H-pyrazole-5-carboxamido)-N-(cyclopropylmethyl)-5-methylpyrazolo[1,5-a]pyridine-7-carboxamide]
> 70%: all assays above

O=C(Nc1c(Br)cc2ccnn2c1C(=O)NC1CC1)c1cc(Br)nn1-c1ncccc1Cl [Compound 52, 5-bromo-6-(3-bromo-1-(3-chloropyridin-2-yl)-1H-pyrazole-5-carboxamido)-N-cyclopropylpyrazolo[1,5-a]pyridine-7-carboxamide]
> 70%: all assays above

CCNC(=O)c1c(NC(=O)c2cc(OC)nn2-c2ncccc2Cl)c(C)cc2ccnn12 [Compound 31, 6-(1-(3-chloropyridin-2-yl)-3-methoxy-1H-pyrazole-5-carboxamido)-N-ethyl-5-methylpyrazolo[1,5-a]pyridine-7-carboxamide]
> 70%: all assays above

Cc1cc2ccnn2c(C(=O)NCC2CCOCC2)c1NC(=O)c1cc(Br)nn1-c1ncccc1Cl [Compound 195, 6-(3-bromo-1-(3-chloropyridin-2-yl)-1H-pyrazole-5-carboxamido)-5-methyl-N-((tetrahydro-2H-pyran-4-yl)methyl)pyrazolo[1,5-a]pyridine-7-carboxamide]
> 70%: all assays above

C#CCNC(=O)c1c(NC(=O)c2cc(Br)nn2-c2ncccc2Cl)c(Cl)cc2ccnn12 [Compound 141, 6-(3-bromo-1-(3-chloropyridin-2-yl)-1H-pyrazole-5-carboxamido)-5-chloro-N-(prop-2-yn-1-yl)pyrazolo[1,5-a]pyridine-7-carboxamide]
> 70%: all assays above

Cc1cc2ccnn2c(C(=O)NCC(F)(F)F)c1NC(=O)c1cc(Br)nn1-c1ncccc1Cl [Compound 96, 6-(3-bromo-1-(3-chloropyridin-2-yl)-1H-pyrazole-5-carboxamido)-5-methyl-N-(2,2,2-trifluoroethyl)pyrazolo[1,5-a]pyridine-7-carboxamide]
> 70%: all assays above

CC(C)NC(=O)c1c(NC(=O)c2cc(Br)nn2-c2ncccc2Cl)c(Br)cc2ccnn12 [Compound 91, 5-bromo-6-(3-bromo-1-(3-chloropyridin-2-yl)-1H-pyrazole-5-carboxamido)-N-isopropylpyrazolo[1,5-a]pyridine-7-carboxamide]
> 70%: all assays above

COc1cc(C(=O)Nc2c(C)cc3ccnn3c2C(=O)NC(C)(C)CO)n(-c2ncccc2Cl)n1 [Compound 197, 6-(1-(3-chloropyridin-2-yl)-3-methoxy-1H-pyrazole-5-carboxamido)-N-(1-hydroxy-2-methylpropan-2-yl)-5-methylpyrazolo[1,5-a]pyridine-7-carboxamide]
> 70%: all assays above

C=CCNC(=O)c1c(NC(=O)c2cc(Br)nn2-c2ncccc2Cl)c(C)cc2ccnn12 [Compound 6, N-allyl-6-(3-bromo-1-(3-chloropyridin-2-yl)-1H-pyrazole-5-carboxamido)-5-methylpyrazolo[1,5-a]pyridine-7-carboxamide]
> 70%: all assays above

CC(C)NC(=O)c1c(NC(=O)c2cc(Br)nn2-c2ncccc2Cl)c(Cl)cc2ccnn12 [Compound 138, 6-(3-bromo-1-(3-chloropyridin-2-yl)-1H-pyrazole-5-carboxamido)-5-chloro-N-isopropylpyrazolo[1,5-a]pyridine-7-carboxamide]
> 70%: all assays above
